The values that follow come from ChEMBL document CHEMBL3616426 (Eur J Med Chem, 2015).

The test system of data set [1] is Rattus norvegicus. In words: Antiosteoporotic activity in ovariectomized Sprague-Dawley rat assessed as trabecular thickness at 3 ug/kg, po qd at 18th week by micro-CT analysis (reference value: 0.103 +/- 0.0044 millimeter). The format is functional, Trabecula.
The subject of data set [2] is Rattus norvegicus. In words: Antiosteoporotic activity in ovariectomized Sprague-Dawley rat assessed as serum osteocalcin level at 3 ug/kg, po qd at 18th week by enzyme immunoassay (reference value: 1118.9 +/- 37.77 ng/ml). The format is functional.
Data set [3] is described as follows: n-octanol-water partition coefficient, log P of the compound after 24 hrs by HPLC analysis. The format is physicochemical.
Data set [4] has as its system Rattus norvegicus. In words: Antiosteoporotic activity in ovariectomized Sprague-Dawley rat assessed as trabecular thickness at 1 ug/kg, po qd at 6th week by micro-CT analysis (reference value: 0.086 +/- 0.0069 millimeter). The format is functional, Trabecula.
The subject of data set [5] is Rattus norvegicus. Kind of data set: Antiosteoporotic activity in ovariectomized Sprague-Dawley rat assessed as serum osteocalcin level at 1 ug/kg, po qd at 18th week by enzyme immunoassay (reference value: 1118.9 +/- 37.77 ng/ml). Type of data set: functional.
Data set [6] deals with Rattus norvegicus. Kind of data set: Antiosteoporotic activity in ovariectomized Sprague-Dawley rat assessed as trabecular separation at 1 ug/kg, po qd at 18th week by micro-CT analysis (reference value: 0.234 +/- 0.021 millimeter). The format is functional, Trabecula.
Data set [7] has as its system Rattus norvegicus. Kind of data set: Antiosteoporotic activity in ovariectomized Sprague-Dawley rat assessed as trabecular thickness at 3 ug/kg, po qd at 6th week by micro-CT analysis (reference value: 0.086 +/- 0.0069 millimeter). The format is functional, Trabecula.
Data set [8] has as its system Rattus norvegicus. In words: Antiosteoporotic activity in ovariectomized Sprague-Dawley rat assessed as serum osteocalcin level at 10 ug/kg, po qd at 12th week by enzyme immunoassay (reference value: 1055.8 +/- 14 ng/ml). The format is functional.
In data set [9] the test system is Rattus norvegicus. Kind of data set: Antiosteoporotic activity in ovariectomized Sprague-Dawley rat assessed as serum osteocalcin level at 3 ug/kg, po qd at 12th week by enzyme immunoassay (reference value: 1055.8 +/- 14 ng/ml). Type of data set: functional.
Data set [10] relates to Rattus norvegicus. Kind of data set: Antiosteoporotic activity in ovariectomized Sprague-Dawley rat assessed as bone volume /tissue volume at 1 ug/kg, po qd at 12th week by micro-CT analysis (reference value: 31.61 +/- 2.39%). The format is functional.
Data set [11] has as its system Rattus norvegicus. In words: Antiosteoporotic activity in ovariectomized Sprague-Dawley rat assessed as bone volume /tissue volume at 3 ug/kg, po qd at 18th week by micro-CT analysis (reference value: 27.36 +/- 1.99%). Type of data set: functional.
Data set [12] has as its target T1, Estrogen receptor (Homo sapiens) (UniProt P03372).
T1 sequence (whole entry): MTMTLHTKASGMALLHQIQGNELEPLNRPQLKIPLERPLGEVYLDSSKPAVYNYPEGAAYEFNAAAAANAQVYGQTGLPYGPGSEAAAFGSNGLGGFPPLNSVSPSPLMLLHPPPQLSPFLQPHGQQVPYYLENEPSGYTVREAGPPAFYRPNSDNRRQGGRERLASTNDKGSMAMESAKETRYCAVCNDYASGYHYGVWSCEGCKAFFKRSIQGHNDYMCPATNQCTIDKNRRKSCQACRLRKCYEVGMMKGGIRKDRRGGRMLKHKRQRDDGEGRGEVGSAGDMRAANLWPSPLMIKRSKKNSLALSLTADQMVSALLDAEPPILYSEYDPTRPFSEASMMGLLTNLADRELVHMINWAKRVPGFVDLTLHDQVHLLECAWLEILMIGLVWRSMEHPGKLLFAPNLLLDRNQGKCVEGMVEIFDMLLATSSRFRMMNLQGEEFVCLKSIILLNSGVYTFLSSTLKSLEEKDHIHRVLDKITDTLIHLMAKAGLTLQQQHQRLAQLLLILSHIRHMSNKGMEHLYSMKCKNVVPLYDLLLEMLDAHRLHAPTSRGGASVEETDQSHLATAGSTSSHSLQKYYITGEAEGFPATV
Kind of data set: Antagonist activity at ERalpha (301 to 553 amino acid residues) (unknown origin) assessed as inhibition of E2 induced interaction with SRC1 after 24 hrs by yeast-two-hybrid assay. Also noted: concentration or dose not given beside the values.

Data set [13] deals with Rattus norvegicus. Kind of data set: Antiosteoporotic activity in ovariectomized Sprague-Dawley rat assessed as prevention of bone mineral density loss at 1 to 3 ug/kg, po qd measured at 6th to 18th week by micro-CT analysis relative to OVX rat. The format is functional, organism-based.
In data set [14] the test system is Rattus norvegicus. In words: Antiosteoporotic activity in ovariectomized Sprague-Dawley rat assessed as bone volume /tissue volume at 3 ug/kg, po qd at 6th week by micro-CT analysis (reference value: 41.33 +/- 5.04%). Type of data set: functional.

Calls of active or inactive are those of the source. No cut-off for these calls is given here.

Take `O=C1c2cc(O)cc(O)c2[C@@H](c2ccc(O)cc2)[C@@H]1c1cc(O)cc(O)c1` [ISOPAUCIFLORAL F]: the Activity in data set [1] worked out at 0.102 mm; in data set [2], 713.24 ng/mL; in data set [4], 0.083 mm; in data set [5] it was 812.1 ng/mL; in [6], 0.183 mm; in data set [7], 0.092 mm. Also, the Activity in data set [8] was found to be 1156.07 ng/mL; in [9], 1109.6 ng/mL; in data set [10], 31.46%; in data set [11], 36.45%; in data set [12], 9.45%; in data set [14], 52.56%. Besides, the logP at 24 h in [3] amounted to 1.34. Further, the result in data set [13] was inactive.

In general, logP refers to a log measure of how a compound divides between an organic and an aqueous phase.
